Key:
[1] = tested on: Monocotyledonous and dicotyledonous test plants; test: Example B1 herbicidal action, application pre-emergence (Table B1b); assay type: in vivo; settings: 250 g/ha, evaluated after 4 weeks
In short: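 Compounds sprayed as aqueous solution from acetone/Emulsogen EL/NMP/dipropylene glycol monomethyl ether/X-77 formulation onto soil right after sowing (pre-emergence) or onto 8–9-day plants (post-emergence); greenhouse-grown. Damage scored 0 (none) to 10 (total) after 4 weeks pre- or 3 weeks post-emergence.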

[2] = tested on: Monocotyledonous and dicotyledonous test plants; test: Example B1 herbicidal action, application post-emergence (Table B1a); assay type: in vivo; settings: 250 g/ha, evaluated after 3 weeks, scale 0-10
Procedure: Monocotyledonous and dicotyledonous test plants were sown in seed trays in standard soil. Immediately after sowing (pre-emergence) or after 8 to 9 days cultivation (post-emergence), the test compounds were applied by spraying in the form of an aqueous solution derived from the formulation of the technical active ingredient in 0.6 ml acetone and 45 ml formulation solution containing 10.6% Emulsogen EL (CAS RN 61791-12-6), 42.2% N-methylpyrrolidone, 42.2% dipropylene glycol monomethyl ether (CAS RN 34590-94-8) and 0.2% X-77 (CAS RN 11097-66-8). The test plants were then grown in a greenhouse under optimum conditions. After a test duration of 3 weeks (post-emergence) or 4 weeks (pre-emergence), the test was evaluated (10=total damage to plant, 0=no damage to plant).

Row | SMILES | herbicidal action (damage rating 0-10), Amaranthus [1] | herbicidal action (damage rating 0-10), Digitaria [1] | herbicidal action (damage rating 0-10), Panicum [1] | herbicidal action (damage rating 0-10), Setaria [1] | herbicidal action (damage rating 0-10), Sida [1] | herbicidal damage rating, Abutilon [2] | herbicidal damage rating, Amaranthus [2] | herbicidal damage rating, Digitaria [2] | herbicidal damage rating, Panicum [2] | herbicidal damage rating, Setaria [2] | herbicidal damage rating, Sida [2]
1 | CC1(C)CC(S(=O)(=O)C(c2c(F)cccc2F)C(F)(F)F)=NO1 (stereo not shown) [Compound No. 1.113, 3-[1-(2,6-difluoro-phenyl)-2,2,2-trifluoro-ethanesulfonyl]-5,5-dimethyl-4,5-dihydroisoxazole] | 8 | 9 | 10 | 10 | 0 | 2 | 0 | 8 | 3 | 7 | 4
2 | CC1(C)CC(S(=O)(=O)C(F)(F)c2cc(F)cc3c2OCOC3)=NO1 [1.109] | 10 | 10 | 10 | 9 | 0 | 6 | 5 | 6 | 5 | 3 | 2
3 | CC1(C)CC(S(=O)(=O)C(F)(Cl)c2ccc(F)cc2F)=NO1 (stereo not shown) [1.133] | 10 | 10 | 10 | 10 | 6 | 0 | 5 | 8 | 7 | 5 | 4
4 | Cn1nc(C(F)(F)F)c(C(Cl)S(=O)(=O)C2=NOC(C)(C)C2)c1Cl (stereo not shown) [2.05] | 5 | 9 | 10 | 10 | 8 | 4 | 0 | 3 | 7 | 0 | 3
5 | C=C(OC(C)=O)C(F)(c1c(F)cccc1F)S(=O)(=O)C1=NOC(C)(C)C1 (racemic) [Compound No. 1.62] | 10 | 9 | 10 | 10 | 8 | 4 | 2 | 7 | 8 | 6 | 5
6 | Cn1nc(C(F)(F)F)c(C(Cl)(Cl)S(=O)(=O)C2=NOC(C)(C)C2)c1OC(F)F [2.15] | 10 | 10 | 10 | 10 | 8 | 4 | 0 | 6 | 2 | 4 | 4
7 | CC1(C)CC(S(=O)(=O)C(F)(F)c2ccccc2F)=NO1 [1.94] | 10 | 10 | 10 | 10 | 8 | 5 | 7 | 8 | 7 | 8 | 0
8 | COc1ccccc1C(F)S(=O)(=O)C1=NOC(C)(C)C1 (stereo not shown) [1.104] | 0 | 9 | 10 | 8 | 3 | 3 | 0 | 8 | 7 | 7 | 2
9 | CCOC(=O)c1ccc(C(F)(F)S(=O)(=O)C2=NOC(C)(C)C2)c(F)c1 [1.120] | 8 | 6 | 8 | 0 | 5 | 7 | 0 | 8 | 3 | 4 | 0
10 | Cn1nc(C(F)(F)F)c(C(F)(Cl)S(=O)(=O)C2=NOC(C)(C)C2)c1OC(F)F (stereo not shown) [2.14] | 10 | 10 | 10 | 10 | 9 | 7 | 8 | 7 | 7 | 4 | 7
11 | Cc1ccc(F)c(C(F)(F)S(=O)(=O)C2=NOC(C)(C)C2)c1F [1.108] | 10 | 10 | 10 | 10 | 9 | 7 | 8 | 8 | 5 | 5 | 8
12 | Cc1ccc(F)c(C(F)(Cl)S(=O)(=O)C2=NOC(C)(C)C2)c1F (stereo not shown) [1.146] | 8 | 10 | 10 | 10 | 5 | 5 | 3 | 8 | 5 | 6 | 2
13 | CC1(C)CC(S(=O)(=O)C(F)(F)c2ccccc2OC(F)(F)F)=NO1 [1.67] | 10 | 10 | 10 | 10 | 9 | 4 | 3 | – | 3 | 5 | 4
14 | CC1(C)CC(S(=O)(=O)C(F)(F)c2ccccc2[S+]([O-])C(F)(F)F)=NO1 (racemic) [1.69] | 5 | 10 | 10 | 10 | 4 | 4 | 3 | 8 | 5 | 7 | 5
15 | Cn1nc(C(F)(F)F)c(C(F)(Cl)S(=O)(=O)C2=NOC(C)(C)C2)c1OCC(F)(F)F (stereo not shown) [2.12] | 10 | 10 | 10 | 10 | 8 | 6 | 0 | 6 | 7 | 7 | 6
16 | CC1(C)CC(S(=O)(=O)C(Br)c2c(F)cccc2C(F)(F)F)=NO1 (racemic) [1.80] | 10 | 10 | 10 | 10 | 9 | 4 | 0 | 8 | 5 | 7 | 5
